Values of other authors as cited in patent EP0002485B1, “Process for the preparation of marking compositions containing tin” (HOECHST AKTIENGESELLSCHAFT, priority 1977, dated 1979).

How the values were obtained:
[1] = time until optimum of skeletal accumulation
[2] = labelled with Tc-99m; compared with pyro- and polyphosphates

| Substance | Anreicherung im Skelett erreicht das Optimum [1] | Plasmaclearance [2] |
| --- | --- | --- |
| Methylendiphosphonsäure [MDP] | zwei | – |
| 1-Hydroxyäthan-1,1-diphosphonsäure [HEDP] | – | bedeutend schnellere |
